Data taken from US8524691B2, “Phosphonated rifamycins and uses thereof for the prevention and treatment of bone and joint infections” (The Medicines Company, priority 2008, dated 2013).
≈ marks a conversion by molar mass, not a printed value. Read-outs that look alike come from different tables or passages of the source.

Legend:
[1] = type: in vitro ADME; conditions: for % Conversion (prodrug converted to parent drug after binding to bone): 24 h incubation, 37° C.
Protocol: Amounts of parent drug “regenerated” from the phosphonated prodrug were measured as follows. Washed bone powder-bound prodrugs from the above experiment were resuspended in 400 μL PBS+2% DMSO or in 400 μL 50% (v/v in PBS+2% DMSO) human or rat serum. The suspension was incubated overnight at 37° C., centrifuged at 13,000 rpm for 2 min and the supernatant was recovered. The amount of regenerated parent drug in the supernatant was determined by measurements using the microbiological assay that was previously described for the prodrugs themselves. The amount of prodrug was deduced from standard curves of known amounts of parent drug that were used as reference for each experiment. The amount of regenerated drug assessed by this bioassay was corroborated by MIC determination. The percentage of drug regenerated in PBS or serum after the overnight incubation (Table 2) was deduced from the difference between the amount of bound prodrug and the amount of regenerated drug (not shown).

S. aureus ATCC 13709 [2] = experiment: microbe, parasite or virus in culture; type: cell-based; conditions: for Serum dependence of antibacterial activity (in words): MIC with versus without serum; for MIC: Staphylococcus aureus, ATCC13709, 18 h
S. aureus ATCC 13709 [3] = experiment: microbe, parasite or virus in culture; type: cell-based; conditions: for Minimum inhibitory concentration, S. aureus ATCC 13709: CAMHB, 37° C., 18 h; for Antibacterial activity (in words, from Table 1): S. aureus MIC
Outline: (§1)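 Two-fold serial dilutions in DMSO were tested in cation-adjusted Mueller Hinton broth, following NCCLS M26-A, at 5×10^5 c.f.u./mL with 1.25% DMSO final, in duplicate. Plates were incubated at 37 °C for 18 h. MIC was the lowest concentration inhibiting visible growth.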

[4] = test system: S. aureus ATCC 13709^A, Novobiocin and Rifampicin resistant variant; experiment: Antibacterial susceptibility (MIC), NCCLS broth microdilution; type: cell-based
Outline: as §1

S. aureus ATCC 29213 = experiment: as above; type: cell-based; conditions: for Minimum inhibitory concentration, S. aureus ATCC 29213: CAMHB, 37° C., 18 h
Outline: as §1

[5] = test system: Novobiocin resistant mutant strain of S. aureus ATCC 13709; experiment: Prophylactic efficacy in rat model of S. aureus bone infection; type: in vivo; conditions: for Measured bacterial titer, test compound: 20 mg/kg parent drug equivalent, tibia 24 h postinfection; for Prophylactic activity in rat bone infection model (in words): 20 mg/kg, 1 day or 5 days prior to infection
Protocol: To determine the in vivo activity of bisphosphonated prodrugs of Rifamycin derived antibacterials in comparison to their non-bisphosphonated parents, compounds 18, 19, 48a, 59, 66, 89, 95, 102, 110, 142b and 164 and their parent drug rifabutin were used as prophylactic therapeutics in an animal model of infection. Specifically, a spontaneous Novobiocin resistant mutant strain of S. aureus ATCC 13709 (a clinical osteomyelitis isolate), was grown overnight at 37° C. in brain heart infusion broth (BHIB). After 16 h of growth, cells were subcultured into fresh BHIB and incubated for 4 to 5 h at 37° C. The cells were washed twice with phosphate-buffered saline (PBS) and resuspended in BHIB supplemented with 10% (vol./vol.) fetal bovine serum at a density of approximately 10^10 colony forming units (CFU)/ml (based upon turbidimetry). The suspension was aliquoted and a portion was used to check the CFU count. The culture was stored frozen (−80° C.) and was used without subculture. For use as an inoculum the culture was thawed, diluted in PBS and kept in an ice bath until it was used.
Animals were infected as described by O'Reilly et al. (Antimicrobial Agents and Chemotherapy (1992), 36(12): 2693-97) to generate the bone infection. Female CD rats (age, 57 to 70 days; n=5/group; Charles River, St-Constant, Canada) were anaesthetized by isofluorane before and during the surgery. Following complete induction of anesthesia, the rat was placed ventral side up and hair was shaved from the surgical site. The skin over the leg was cleaned and disinfected (proviodine-ethanol 70%). A longitudinal incision below the knee joint was made in the sagital plane. The incision was made over the bone below the “knee joint” (tibia head or condyle) but not completely extending to the ankle. A high speed drill fitted with a 2 mm bulb bit was used to drill a hole into the medullar cavity of the tibia. Rats were injected intra-tibially with 0.05 ml 5% sodium morrhuate (sclerosing agent) and then with 0.05 ml of S. aureus suspension (ca. 2×10^7 CFU/rat). The hole was sealed by applying a small amount of dry dental cement which immediately absorbs fluids and adheres to the site. The wound was closed using 3 metal skin clips. Moxifloxacin (as a positive control) was injected once at 10 mg/kg intravenously 1 h postinfection in saline, while the Rifabutin derived prodrugs (prepared in 0.9% saline) were injected at the dose indicated in Table 3 as a single intravenous bolus at different time points prior to the infection.
Infected rats were sacrificed by CO2 asphyxiation 24 h postinfection to monitor the bacterial CFU count. Infected tibiae were removed, dissected free of soft tissue, and weighed. The bones were ground, 50 mg of charcoal were added and the powder was resuspended in 5 ml 0.9% NaCl, serially diluted and processed for quantitative cultures. Treatment efficacy was measured in terms of Log viable bacteria (Log CFU per gram of bone). […] The limit of detection is 2 Log CFU. Statistical comparisons of viable bacterial counts for the different treated and untreated groups were performed with the Dunnett's multiple-comparison test. Differences were considered significant when the P value was <0.05 when comparing treated infected animals to the untreated infected ones. The doses used, the amount of time separating the treatment from the time of infection and the treatment outcomes are shown in Table 3.

[6] = single intravenous bolus 1 day prior to infection
[7] = single intravenous bolus 5 days prior to infection

Row | Compound | Serum dependence of antibacterial activity (in words) (S. aureus ATCC 13709 [2]) | Measured bacterial titer, test compound [5, 6] | Measured bacterial titer, test compound [5, 7] | Prophylactic activity in rat bone infection model (in words) [5] | Release of parent rifabutin from bone powder-bound prodrug (in words) [1] | % Conversion (prodrug converted to parent drug after binding to bone) ([1]; 50% Heat Inactivated Rat Serum) [%] | % Conversion (prodrug converted to parent drug after binding to bone) ([1]; 50% Rat Serum) [%] | % Conversion (prodrug converted to parent drug after binding to bone) ([1]; PBS) [%] | Minimum inhibitory concentration, ATCC 13709 + 50% Human Serum (S. aureus ATCC 13709 [2]) [µg/mL] | Minimum inhibitory concentration, ATCC 13709 + 50% Mouse Serum (S. aureus ATCC 13709 [2]) [µg/mL] | Minimum inhibitory concentration, ATCC 13709 + 50% Rat Serum (S. aureus ATCC 13709 [2]) [µg/mL] | Minimum inhibitory concentration, S. aureus ATCC 13709 (S. aureus ATCC 13709 [3]) [µg/mL] | Antibacterial activity (in words, from Table 1) (S. aureus ATCC 13709 [3]) | Minimum inhibitory concentration, S. aureus ATCC 13709^A [4] [µg/mL] | Minimum inhibitory concentration, S. aureus ATCC 29213 (S. aureus ATCC 29213) [µg/mL] | further results
1 | CCC(=O)OCOC(=O)N[C@@H](CCC(=O)NC(P(=O)(O)O)P(=O)(O)O)C(=O)N(C)CC(=O)O[C@@H]1[C@@H](C)[C@@H](O)[C@@H](C)[C@H](OC(C)=O)[C@H](C)[C@@H](OC)/C=C/O[C@@]2(C)Oc3c(C)c(O)c4c(c3C2=O)C2=NC3(CCN(CC(C)C)CC3)NC2=C(NC(=O)/C(C)=C\C=C\[C@@H]1C)C4=O [Compound 102] | significant increase in antibacterial activity in serum | 2.89 ± 1.13 Log CFU/g of bone | 5.38 ± 0.83 Log CFU/g of bone | active at 1 day and display activity similar to rifabutin at 5 days |  |  |  |  |  |  |  |  |  |  |  | Release of parent rifabutin from bone powder-bound prodrug (in words) ([1]; PBS versus serum): regeneration is clearly accelerated by the presence of serum; MIC (S. aureus ATCC 13709 [2]; read-out: Minimum inhibitory concentration, ATCC 13709 + 50% Human Serum): 16 µg/mL; MIC (S. aureus ATCC 13709 [2]; read-out: Minimum inhibitory concentration, ATCC 13709 + 50% Mouse Serum): 0.0625 µg/mL; MIC (S. aureus ATCC 13709 [2]; read-out: Minimum inhibitory concentration, ATCC 13709 + 50% Rat Serum): 0.0156 µg/mL; MIC (S. aureus ATCC 13709 [3]; Staphylococcus aureus, ATCC13709, 18 h, read-out: Minimum inhibitory concentration, S. aureus ATCC 13709): 4 µg/mL (≈ 2.96 µM); MIC ([4]; Staphylococcus aureus, ATCC13709, read-out: Minimum inhibitory concentration, S. aureus ATCC 13709^A): > 128 µg/mL; MIC (S. aureus ATCC 29213; Staphylococcus aureus, ATCC29213, 18 h, read-out: Minimum inhibitory concentration, S. aureus ATCC 29213): 2 µg/mL (≈ 1.48 µM)
2 | CCN(CC)CC.CO[C@H]1/C=C/O[C@@]2(C)Oc3c(C)c(O)c4c(c3C2=O)C2=NC3(CCN(CC(C)C)CC3)NC2=C(NC(=O)/C(C)=C\C=C\[C@H](C)[C@H](OC(=O)CN(C)C(=O)Nc2ccc(CC(P(=O)(O)O)P(=O)(O)O)cc2)[C@@H](C)[C@@H](O)[C@@H](C)[C@H](OC(C)=O)[C@@H]1C)C4=O [Compound 142b] |  | 2.14 ± 0.08 Log CFU/g of bone | 4.79 ± 1.40 Log CFU/g of bone |  | release significant amounts of the parent rifabutin once bound to bone powder, regardless of the presence of serum | 0.24 ± 0.04 | 0.22 ± 0.06 | 0.37 ± 0.08 | 0.5 | 0.0625 | 0.008 | 0.125 | very low MICs whether in the absence or in the presence of serum | >128 | 0.0625 | 
3 | CCC(=O)OCOC(=O)N[C@@H](Cc1ccc(OCCCC(P(=O)(O)O)P(=O)(O)O)cc1)C(=O)N(C)CC(=O)O[C@@H]1[C@@H](C)[C@@H](O)[C@@H](C)[C@H](OC(C)=O)[C@H](C)[C@@H](OC)/C=C/O[C@@]2(C)Oc3c(C)c(O)c4c(c3C2=O)C2=NC3(CCN(CC(C)C)CC3)NC2=C(NC(=O)/C(C)=C\C=C\[C@@H]1C)C4=O.N.N [Compound 89] | significant increase in antibacterial activity in serum | 2.05 ± 0.07 Log CFU/g of bone | 3.45 ± 1.36 Log CFU/g of bone | active at 1 day and display activity similar to rifabutin at 5 days | regeneration is clearly accelerated by the presence of serum | 0.16 ± 0.04 | 0.18 | 0.02 | 16 | 0.0625 | 0.0156 | 4 |  | >128 | 4 | 
4 | CCN(CC)CC.CCN(CC)CC.CO[C@H]1/C=C/O[C@@]2(C)Oc3c(C)c(O)c4c(c3C2=O)C2=NC3(CCN(CC(C)C)CC3)N(C(=O)OCc3ccc(OC(=O)CCCC(P(=O)(O)O)P(=O)(O)O)cc3)C2=C(NC(=O)/C(C)=C\C=C\[C@H](C)[C@H](O)[C@@H](C)[C@@H](O)[C@@H](C)[C@H](OC(C)=O)[C@@H]1C)C4=O [Compound 18] |  | 2.08 ± 0.02 Log CFU/g of bone | 2.91 ± 1.33 Log CFU/g of bone | active at 1 day and display activity similar to rifabutin at 5 days | release significant amounts of the parent rifabutin once bound to bone powder, regardless of the presence of serum | 0.55 ± 0.20 | 0.95 ± 0.40 | 0.66 ± 0.03 | 0.125 | 0.125 | 0.0156 | 0.125 | very low MICs whether in the absence or in the presence of serum | >128 | 0.125 | 
5 | CO[C@H]1/C=C/O[C@@]2(C)Oc3c(C)c(O)c4c(c3C2=O)C2=NC3(CCN(CC(C)C)CC3)N(C(=O)OCc3cc(C)c(OC(=O)CCC(P(=O)(O)O)P(=O)(O)O)c(C)c3)C2=C(NC(=O)/C(C)=C\C=C\[C@H](C)[C@H](O)[C@@H](C)[C@@H](O)[C@@H](C)[C@H](OC(C)=O)[C@@H]1C)C4=O.N.N [Compound 19] |  | 2.55 ± 0.69 Log CFU/g of bone | 3.69 ± 1.45 Log CFU/g of bone | active at 1 day and display activity similar to rifabutin at 5 days | release significant amounts of the parent rifabutin once bound to bone powder, regardless of the presence of serum | 0.14 | 0.14 | 0.14 | 0.125 | 0.0625 | 0.0156 | 0.25 | very low MICs whether in the absence or in the presence of serum | >128 | 0.25 | 
